{"source": "patent US8586533B2", "about": "“Treatment of early-stage osteoarthritis” (Kaohsiung Medical University, priority 2008, dated 2013)", "key": {"[1]": {"system": "human articular chondrocytes", "test": "Dimethylmethylene blue (DMMB) assay of GAG levels in chondrocyte cultures", "type": "cell-based", "details": "for GAG levels versus control group: 10 nM", "protocol": "Chondrocyte cultures were divided into 4 groups.\nAlginate beads were dissolved as described above and further digested by papain (300 μg/ml) at 60° C. for 18 hours. The levels of DNA and sulfated glycosaminoglycan (GAG) in the samples were quantified using Hoechst 33258 dye and 1,9-dimethylmethylene blue dye, respectively. A standard curve for the DMMB assay was generated using aqueous chondroitin sulfate C solution (Sigma-Aldrich, St. Louis, Mo.) at concentrations ranging from […]."}, "rat articular cartilage [2]": {"system": "rat articular cartilage", "test": "Papain-induced OA rat model, TUNEL staining of tibia articular sections", "type": "in vivo, Sprague-Dawley rats", "details": "OA plus PTH group, 10 nM intraarticular", "protocol": "(§1) Fifty-four 12-week-old male Sprague-Dawley rats (250-300 gm) were purchased from BioLASCO Taiwan and housed under standard laboratory conditions (temperature 24° C., 12-hour light-dark cycle) with food and water ad libitum. The animals were acclimatized to the laboratory environment for 1 week before the experiments.\nRats were divided into the following 3 groups: OA (OA induction without PTH [1-34] treatment) (n=18), OA plus PTH (PTH [1-34] treatment followed by OA induction) (n=18), and PTH (PTH [1-34] treatment without OA induction) (n=18). Each left knee, which served as the contralateral control joint, was injected with vehicle without PTH treatment or OA induction. The right knees were the study joints. OA was induced in the right knees of rats in the OA and OA plus PTH groups with intraarticular injections of 20 μl of 4% papain solution and 20 μl of 0.03M cysteine. The injections were given with a 26-gauge needle via the patellar tendon on days 1, 4, and 7 of the experiment (see e.g., Nucl Med Commun (1996) 17(6): 529-35). […]\nApoptotic cells in each section were measured by TUNEL staining using the In Situ Cell Death Detection Kit, TMR red. […] DAPI-stained cells (mean±SEM 150±40) were counted in the center area of the cartilage in tibia plateaus. […]"}, "rat articular cartilage [3]": {"system": "rat articular cartilage", "test": "Papain-induced OA rat model, Safranin O-stained GAG histomorphometry", "type": "in vivo, Sprague-Dawley rats", "details": "for GAG level (red:total ratio) versus OA group: p<0.01", "protocol": "as §1\nRats were divided into the following 3 groups: OA (OA induction without PTH [1-34] treatment) (n=18), OA plus PTH (PTH [1-34] treatment followed by OA induction) (n=18), and PTH (PTH [1-34] treatment without OA induction) (n=18). Each left knee, which served as the contralateral control joint, was injected with vehicle without PTH treatment or OA induction. The right knees were the study joints. OA was induced in the right knees of rats in the OA and OA plus PTH groups with intraarticular injections of 20 μl of 4% papain solution and 20 μl of 0.03M cysteine. The injections were given with a 26-gauge needle via the patellar tendon on days 1, 4, and 7 of the experiment (see e.g., Nucl Med Commun (1996) 17(6): 529-35). In the OA plus PTH group, after OA induction, the right knees were injected intraarticularly with 40 μl of 10 nM PTH (1-34) every 3 days until rats were killed. In the PTH group, the same PTH (1-34) treatment was performed but without OA induction. Six rats from each group were killed by CO2 inhalation at the same time points as rats in the OA plus PTH group, in which PTH (1-34) treatment was given for 1, 3, and 5 weeks.\nAfter rats were killed, the knees were harvested, and the tibia plateaus with articular cartilage were collected and fixed with 10% neutral buffered formalin prior to histologic preparation. The samples were then decalcified in 10% formic acid/PBS. The decalcified tibia articular samples were paraffin embedded, and 5-μm microsections in the coronary plane were prepared. GAG was stained with Safranin O-fast green (1% Safranin O counterstained with 0.75% hematoxylin and then 1% fast green) (Sigma, St. Louis Mo.). Localized type II collagen and type X collagen were immunostained. Apoptotic cells in cartilage were TUNEL stained.\nGAG was stained red by Safranin O, and the total and red-stained areas in the articular cartilage of each proximal tibia were measured using Image-Pro Plus software, version 5.0. The ratio of red stained area to total area (red:total) in each group was calculated.\nMethods are as described above in the Sections entitled “Animal Experiments” and “Osteoarthritis Induction and PTH Treatment” except that the concentration of the administered dose of PTH (1-34) was 5 nM, 10 nM, or 100 nM. Safranin O-stained articular cartilage in the proximal tibia from the contralateral control joints of rats in the OA group and the study joints of rats in the OA and OA plus PTH groups are measured for the ratio of Safranin O-stained area to total area. The ratios of Safranin O-stained area to total area (red/total) among all groups after 5 weeks of PTH treatment are compared. Bars show the mean and SEM of 6 samples. Data are evaluated by one-way analysis of variance, and multiple comparisons are performed using Scheffe's method. **=P<0.01: the control joints versus study joints in the OA group at the indicated time point; ##=P<0.01: the OA joints versus study joints in groups of OA plus PTH 5 nM, OA plus PTH 10 nM, and OA plus PTH 100 nM."}, "[4]": {"system": "human articular chondrocytes", "test": "Quantitative real-time PCR of mRNA levels in azaC-induced terminal differentiation culture model", "type": "cell-based", "protocol": "Chondrocyte cultures were divided into 4 groups. […] Louis, Mo.) for 48 hours."}}, "data": [{"substance": "PTH (1-34): 34-amino acid long peptide made up of amino-terminal amino acids 1 through 34 of human parathyroid hormone", "values": [{"measurement": "GAG levels versus control group", "setting": "[1]; PTH group (no azaC)", "result": "not significantly different"}, {"measurement": "GAG levels versus azaC group", "setting": "[1]; azaC plus PTH group, 10 nM, 3, 7, and 10 days, P<0.01", "result": "significantly higher"}, {"measurement": "GAG levels versus control group", "setting": "[1]; azaC plus PTH group, after 7 and 10 days, P<0.01", "result": "higher"}, {"measurement": "rate of apoptosis of chondrocytes in study cartilage versus contralateral control cartilage", "setting": "rat articular cartilage [2]", "result": "no significant difference"}, {"measurement": "rate of apoptosis of chondrocytes in study cartilage versus OA group", "setting": "rat articular cartilage [2]; P<0.01", "result": "significantly lower"}, {"measurement": "GAG level (red:total ratio) versus OA group", "setting": "rat articular cartilage [3]; 5 nM, intraarticular every three days, 5 weeks", "result": "significantly higher"}, {"measurement": "GAG level (red:total ratio) versus OA group", "setting": "rat articular cartilage [3]; 10 nM, intraarticular every three days, 5 weeks", "result": "significantly higher"}, {"measurement": "GAG level (red:total ratio) versus OA group", "setting": "rat articular cartilage [3]; 100 nM, intraarticular every three days, 5 weeks", "result": "significantly higher"}, {"measurement": "GAG level, control group versus PTH-treated groups", "setting": "rat articular cartilage [3]; 5, 10, or 100 nM, intraarticular every three days, 5 weeks", "result": "no significant difference"}, {"measurement": "red:total ratio versus contralateral control", "setting": "rat articular cartilage [3]; OA plus PTH group, 10 nM intraarticular, 1 and 3 weeks, P<0.01", "result": "significantly lower"}, {"measurement": "red:total ratio versus contralateral control cartilage", "setting": "rat articular cartilage [3]; OA plus PTH group, 10 nM intraarticular, 5 weeks", "result": "not significantly different"}, {"measurement": "red:total ratio (Safranin O-stained area to total area, GAG) versus OA group", "setting": "rat articular cartilage [3]; OA plus PTH group, intraarticular 40 μl of 10 nM every 3 days, 1, 3, and 5 weeks, P<0.01", "result": "significantly higher"}, {"measurement": "red:total ratio, study cartilage versus contralateral control cartilage", "setting": "rat articular cartilage [3]; PTH group (no OA induction), 10 nM intraarticular, any time point", "result": "no significant differences"}, {"measurement": "Col2a1 expression among azaC plus PTH, azaC and control groups", "setting": "[4]; 10 nM, 10 days of treatment", "result": "no significant difference"}, {"measurement": "Expression of aggrecan, Col2a1, Col10a1, ALP, and IHH genes versus control group", "setting": "[4]; PTH group (no azaC), 10 nM, 3-10 days of treatment", "result": "not significantly different"}, {"measurement": "Bcl-2 expression", "setting": "[4]; PTH group (no azaC), 10 nM, 3-10 days of treatment, not statistically significant", "result": 1.7, "unit": "times that in control"}, {"measurement": "azaC-induced changes in levels of mRNA for Col10a1, ALP, and IHH", "setting": "[4]; azaC plus PTH cultures, 10 nM, 3, 7 and 10 days of treatment", "result": "significantly eliminated"}, {"measurement": "Expression of Col10a1 and ALP versus control cultures", "setting": "[4]; azaC plus PTH cultures, 10 nM, day 3 of treatment, P<0.01", "result": "lower"}, {"measurement": "Expression of ALP versus control cultures", "setting": "[4]; azaC plus PTH cultures, 10 nM, day 10 of treatment, P<0.05", "result": "higher"}, {"measurement": "IHH mRNA level, lower than control cultures", "setting": "[4]; azaC plus PTH group, 10 nM, 3-10 days of treatment", "result": "47-71%"}, {"measurement": "aggrecan mRNA level versus azaC group", "setting": "[4]; azaC plus PTH group, 10 nM, 3 and 7 days of treatment (P<0.05, P<0.01)", "result": "significantly higher"}, {"measurement": "Col2a1 expression versus azaC group", "setting": "[4]; azaC plus PTH group, 10 nM, 3 days of treatment, P<0.05", "result": "significantly higher"}, {"measurement": "Col2a1 expression versus azaC (P<0.01) or control (P<0.05) group", "setting": "[4]; azaC plus PTH group, 10 nM, 7 days of treatment", "result": "higher"}, {"measurement": "aggrecan mRNA level versus azaC group", "setting": "[4]; azaC plus PTH group, 10 nM, 10 days of treatment", "result": "not different"}, {"measurement": "Bax expression", "setting": "[4]; azaC plus PTH group, 10 nM, 14 days", "result": "1.6 times that in the control cultures"}, {"measurement": "ratio of Bcl-2 to Bax versus control group", "setting": "[4]; azaC plus PTH group, 10 nM, after 3 days (P<0.05) and 10 days (P<0.01)", "result": "higher"}, {"measurement": "Bcl-2 expression", "setting": "[4]; azaC plus PTH group, 10 nM, after 3 days of treatment, P<0.05", "result": "2.1 times that of control"}, {"measurement": "Bcl-2 expression", "setting": "[4]; azaC plus PTH group, 10 nM, after 7 days of treatment, P<0.05", "result": 2.1, "unit": "times control"}, {"measurement": "Bcl-2 expression", "setting": "[4]; azaC plus PTH group, 10 nM, after 10 days of treatment, P<0.01", "result": 6.0, "unit": "times control"}]}]}
